# Data published in patent publication US9464077B2, “Nitrogen-containing aromatic heterocyclic compound” (Astellas Pharma Inc., priority 2012, dated 2016).
# What was measured:
# [1] = tested on: FGFR3-TACC3_v3-expressing NIH3T3 cells; experiment: Anchorage-independent cell growth inhibition, spheroid plate; format: cell-based; conditions: Mus musculus, NIH3T3, 96 h, 4 days, read-out: growth inhibition rate v3
# Source text: (§1) Measurement for anchorage-independent cell growth (colony method, etc.) is known to be a system for investigating the anticancer action (pharmacological effect) of compounds (Clinical Oncology, second edition, Cancer and Chemotherapy Publishers Inc.). As a method for measuring the non-adhesive growth of cells, there is the following method using a spheroid plate as referred to above in place of the colony method.
# (§2) In a 96-well spheroid plate (Sumilon Celltight Spheroid 96U; Sumitomo Bakelite), FGFR3-TACC3_v1-expressing NIH3T3 cells, FGFR3-TACC3_v2-expressing NIH3T3 cells, FGFR3-TACC3_v3-expressing NIH3T3 cells, and FGFR3-TACC3_v4-expressing NIH3T3 cells were each seeded at 1×10^3 cells per well in D-MEM media (Invitrogen) containing 10% fetal bovine serum. […] A well supplemented with only medium was also prepared for a positive control. Culturing was performed overnight in the presence of 5% CO2 at 37° C. followed by addition of test compounds (final concentrations: 100 nM, 10 nM, and 1 nM). As a negative control, DMSO used as a solvent for the compounds was added at the same concentration (0.1%) as in the case of addition of the compounds. Then, culturing was performed in the presence of 5% CO2 at 37° C. for 4 days, and a cell counting reagent (CellTiter-Glo™ Luminescent Cell Viability Assay; Promega) was added and the resulting mixture was stirred for 20 minutes followed by measurement with a luminometer.
# [2] = tested on: FGFR3-TACC3_v2-expressing NIH3T3 cells; experiment: as above; format: cell-based; conditions: Mus musculus, NIH3T3, 96 h, 4 days, read-out: growth inhibition rate v2
# Source text: as §1, §2
# [3] = tested on: FGFR3-TACC3_v1-expressing NIH3T3 cells; experiment: as above; format: cell-based; conditions: Mus musculus, NIH3T3, 96 h, 4 days, read-out: growth inhibition rate v1
# Source text: as §1, §2
# [4] = tested on: FGFR3-TACC3_v4-expressing NIH3T3 cells; experiment: as above; format: cell-based; conditions: Mus musculus, NIH3T3, 96 h, 4 days, read-out: growth inhibition rate v4
# Source text: as §1, §2
# FGFR3_S249C/NIH3T3 cells = experiment: Growth assay of cells with forced expression of mutant FGFR3; format: cell-based; conditions: Mus musculus, NIH3T3, 120 h; 5 days after addition, CellTiter-Glo; read-out: IC50 (growth inhibition)
# Method: FGFR3_S249C/NIH3T3 cells were added to a 96-well spheroid plate (U bottom) at a concentration of 3000 cells/well/90 μL, and the compound solution (10 μL) was added thereto on the next day (final DMSO concentration: 0.1%). The compound solution was prepared by serially diluting the compound with DMSO at a 3-fold common ratio (9 portions and DMSO only) from the maximum concentration of 10 mM and then diluted 100-fold with a culture medium (D-MEM, 10% FBS). 5 days after the addition of the compound, the growth inhibition caused by the compound was evaluated by Promega (G7573) CellTiter-Glo™ Luminescent Cell Viability Assay.
# [5] = tested on: bladder cancer patient-derived cell line RT4; experiment: Anchorage-independent cell growth inhibition, spheroid plate; format: cell-based; conditions: Homo sapiens, 96 h, 4 days, read-out: growth inhibition rate RT4
# [6] = tested on: FGFR3-TACC3_v3 (N-FLAG) fusion polypeptide; experiment: In vitro kinase activity inhibition (HTRF KinEASE-TK); format: biochemical, human; conditions: 100 μM ATP
# [7] = tested on: bladder cancer patient-derived cell line RT-112; experiment: Anchorage-independent cell growth inhibition, spheroid plate; format: cell-based; conditions: Homo sapiens, RT-112, 96 h, 4 days, read-out: growth inhibition rate RT-112
# human recombinant FGFR1 = human recombinant FGFR1 (Homo sapiens, UniProt P11362); experiment: FGFR1 enzyme assay (LabChip EZ Reader)
# Method: (§3) The compound was diluted with a solution of dimethyl sulfoxide (DMSO) (10-fold common ratio, 4 portions) before dilution with a reaction buffer (100 mM HEPES (pH7.5), 0.003% Brij-35, 0.004% Tween 20, 0.5 mM DTT, and 10 mM MgCl2) so that the final DMSO concentration was 2%. To 4 μL of the compound solution in a 384-well plate, 2 μL each of FGFR1 enzyme (2 or 3 ng/μL), FGFR2 enzyme (2 ng/μL), or FGFR3 enzyme (6 ng/μL) which were diluted with the reaction buffer was added. […] After the reaction was stopped, the reaction mixture was measured with a LabChip EZ Reader. The IC50 values were calculated by non-linear regression based on the inhibition rates obtained.
# [8] = tested on: UM-UC-14 (FGFR3_S249C-positive cells, bladder cancer); experiment: Antitumor test on UM-UC-14 subcutaneous xenograft; format: in vivo, nude mice; conditions: oral, 1 mg/kg/day, once a day, tumor volume at Day 11 vs Day 1
# Method: 3×10^6 UM-UC-14 cells per 0.1 mL (PBS+matrigel, 1:1) were inoculated subcutaneously into the right flank of nude mice (CAnN, Cg-Foxn1nu/CrlCrlj (nu/nu), male, 4- to 5-week-old), and when their tumor size reached about 250 mm^3, drug administration was started (Day 1). The drug was administered once a day and the tumor size was measured with a caliper and the body weight was also measured every two or three days. The antitumor effect was finally determined based on the tumor volume (mm^3; minor axis (mm)×minor axis (mm)×major axis (mm)/2) at Day 11 (n=3-5). To the control group, 0.5% MC (methyl cellulose) was administered. […] “% regression” indicates what percentage of regression could be achieved compared with the tumor volume at Day 1. Here, the tumor volume at Day 1 means tumor volume immediately before drug administration.
# human recombinant FGFR3 = human recombinant FGFR3 (Homo sapiens, UniProt P22607); experiment: FGFR3 enzyme assay (LabChip EZ Reader)
# Method: as §3
# [9] = tested on: FGFR3-TACC3_v1 (N-FLAG) fusion polypeptide; experiment: In vitro kinase activity inhibition (HTRF KinEASE-TK); format: biochemical, human; conditions: 100 μM ATP
# [10] = tested on: FGFR3-TACC3_v2 (N-FLAG) fusion polypeptide; experiment: as above; format: biochemical, human; conditions: 100 μM ATP
# Chain of human recombinant FGFR1 (P11362 22-822): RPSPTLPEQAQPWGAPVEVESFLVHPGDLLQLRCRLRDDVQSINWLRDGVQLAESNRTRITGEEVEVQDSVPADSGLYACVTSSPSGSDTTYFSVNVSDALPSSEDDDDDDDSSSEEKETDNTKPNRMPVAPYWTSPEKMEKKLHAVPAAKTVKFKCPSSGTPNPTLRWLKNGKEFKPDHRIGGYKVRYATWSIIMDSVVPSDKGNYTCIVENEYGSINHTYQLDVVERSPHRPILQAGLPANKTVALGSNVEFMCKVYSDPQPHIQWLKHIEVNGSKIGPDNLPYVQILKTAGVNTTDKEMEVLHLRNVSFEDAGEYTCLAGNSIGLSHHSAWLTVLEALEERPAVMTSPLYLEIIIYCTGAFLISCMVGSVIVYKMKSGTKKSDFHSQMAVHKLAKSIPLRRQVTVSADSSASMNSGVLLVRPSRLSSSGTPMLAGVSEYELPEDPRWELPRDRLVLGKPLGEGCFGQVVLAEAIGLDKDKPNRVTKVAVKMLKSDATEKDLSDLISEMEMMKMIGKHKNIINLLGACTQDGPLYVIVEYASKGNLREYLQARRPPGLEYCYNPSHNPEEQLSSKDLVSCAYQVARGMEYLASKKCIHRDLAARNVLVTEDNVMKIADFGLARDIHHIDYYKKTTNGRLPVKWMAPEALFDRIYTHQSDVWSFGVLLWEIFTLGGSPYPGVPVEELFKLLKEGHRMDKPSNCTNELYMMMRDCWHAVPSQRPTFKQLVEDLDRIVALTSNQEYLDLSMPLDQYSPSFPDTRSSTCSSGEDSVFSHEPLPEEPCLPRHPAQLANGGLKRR
# Chain of human recombinant FGFR3 (P22607 23-806): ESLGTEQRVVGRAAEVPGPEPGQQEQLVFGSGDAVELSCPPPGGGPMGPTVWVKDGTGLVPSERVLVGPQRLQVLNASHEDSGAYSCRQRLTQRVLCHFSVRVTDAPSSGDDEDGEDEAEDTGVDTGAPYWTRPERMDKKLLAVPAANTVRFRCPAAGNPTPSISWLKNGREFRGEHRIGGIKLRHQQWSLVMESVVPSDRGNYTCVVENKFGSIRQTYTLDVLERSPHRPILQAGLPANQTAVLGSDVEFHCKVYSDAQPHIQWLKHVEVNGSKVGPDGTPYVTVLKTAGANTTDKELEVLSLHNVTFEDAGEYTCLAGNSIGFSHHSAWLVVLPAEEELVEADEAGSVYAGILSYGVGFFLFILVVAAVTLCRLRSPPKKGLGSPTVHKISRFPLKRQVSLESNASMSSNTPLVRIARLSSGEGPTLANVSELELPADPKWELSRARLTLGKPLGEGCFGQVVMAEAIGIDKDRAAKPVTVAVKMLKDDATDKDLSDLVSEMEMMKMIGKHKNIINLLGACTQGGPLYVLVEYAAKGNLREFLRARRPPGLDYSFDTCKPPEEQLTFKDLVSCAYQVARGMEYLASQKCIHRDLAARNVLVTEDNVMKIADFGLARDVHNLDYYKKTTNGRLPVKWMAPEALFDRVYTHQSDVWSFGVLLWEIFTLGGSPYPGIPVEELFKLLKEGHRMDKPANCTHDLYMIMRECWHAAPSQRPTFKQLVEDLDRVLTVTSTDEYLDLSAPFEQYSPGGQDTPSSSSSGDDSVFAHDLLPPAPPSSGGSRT
smiles,measurement,setting,value
COc1cc(OC)c(F)c(COc2cnc(Nc3ccc(N4CCC(NCCO)CC4)cc3)nc2)c1F [Example 299],inhibition at 0.001 µM,[1]; 1 nM,5%
same,inhibition at 0.01 µM,[1]; 10 nM,51%
same,inhibition at 0.1 µM,[1]; 100 nM,89%
same,inhibition at 0.001 µM,[2]; 1 nM,4%
same,inhibition at 0.01 µM,[2]; 10 nM,63%
same,inhibition at 0.1 µM,[2]; 100 nM,91%
same,inhibition at 0.001 µM,[3]; 1 nM,9%
same,inhibition at 0.01 µM,[3]; 10 nM,77%
same,inhibition at 0.1 µM,[3]; 100 nM,92%
same,inhibition at 0.001 µM,[4]; 1 nM,16%
same,inhibition at 0.01 µM,[4]; 10 nM,82%
same,inhibition at 0.1 µM,[4]; 100 nM,90%
same,IC50,FGFR3_S249C/NIH3T3 cells,10 nM
same,inhibition at 0.001 µM,[5]; 1 nM,8%
same,inhibition at 0.01 µM,[5]; 10 nM,45%
same,inhibition at 0.1 µM,[5]; 100 nM,63%
same,rate of inhibiting kinase activity v3,[6]; 1 nM,47%
same,rate of inhibiting kinase activity v3,[6]; 10 nM,88%
same,rate of inhibiting kinase activity v3,[6]; 100 nM,96%
same,inhibition at 0.001 µM,[7]; 1 nM,31%
same,inhibition at 0.01 µM,[7]; 10 nM,84%
same,inhibition at 0.1 µM,[7]; 100 nM,89%
same,IC50,human recombinant FGFR1,< 1 nM
same,"Antitumor Activity, % regression",[8],15%
same,IC50,human recombinant FGFR3,2 nM
same,rate of inhibiting kinase activity v1,[9]; 1 nM,35%
same,rate of inhibiting kinase activity v1,[9]; 10 nM,84%
same,rate of inhibiting kinase activity v1,[9]; 100 nM,94%
same,rate of inhibiting kinase activity v2,[10]; 1 nM,20%
same,rate of inhibiting kinase activity v2,[10]; 10 nM,77%
same,rate of inhibiting kinase activity v2,[10]; 100 nM,95%
